Tests used:
[1] = test system: SNO-oesophageal cancer cells; assay type: cell-based
Description: The SNO-oesophageal cancer cells were cultured in Dulbecco's modified Eagles medium (DMEM) containing 10% Foetal bovine serum (FBS), 0.8% Penicillin/Streptomycin/Fungizone and 0.2% Gentamycin. The SNO-oesophageal cancer cells were subcultured every 48 hours and incubated at 37° C. under a 5% CO2 humidified atmosphere. After 48 hours the cells were trypsinized and plated (6×10^5 cells) in 3.5 cm culture dishes and left to cultivate for 24 hours.
MCF-7 breast cancer cells, in terms of a first study, and SNO-oesophageal cancer cells, in terms of a second study, were treated with 10 μM silverthiocyanide complexes (1)-(5), as well as their ligands (Ligand-1 to Ligand-5) over a 24 hour incubation period. These complexes were dissolved in 0.1% Dimethyl sulfoxide (DMSO). The DMSO alone (vehicle control) decreased the viability with approximately 2.2%, signifying its minimal influence in cancer cell growth. For comparative purposes, 100 μM Cisplatin (CDDP) and 25% H2O2 was included which respectively serves as the apoptotic and necrotic controls. Cisplatin was prepared in 0.9% NaCl, whereas H2O2 was prepared in the supplemented DMEM media right before treatment. An untreated negative control (UT) was exposed to similar conditions as the treated cells and monitored during the experimental study.
An AlamarBlue® Viability® (Serotec, UK) assay was performed after a 24 hour treatment with complexes (1)-(5) and their ligands (Ligand-1 to Ligand-5, respectively) to evaluate the cellular effect the instant complexes (and their ligands) may have on the cancer cells. AlamarBlue® dye (10%) was incubated with trypsinized cells over a 2 hour period before the fluorescence was measured with a Synergy HT Multi-Detection Microplate reader (BioTek, Winooski, Vt.) at wavelengths of 530 nm and (excitation) and 590 nm (emission). This fluorescent based assay in particular involves the metabolic oxidation-reduction reaction of resazurin to a reduced resorufin product that is directly proportional to the amount of viable cells.
The percentage cellular viability of differentially treated SNO-oesophageal cells was determined using an AlamarBlue® assay, as depicted in FIG. 7. Different controls (grey) were included: untreated, 0.1% DMSO solvent and apoptotic control (100 μM Cisplatin) as well as the corresponding ligands (10 μM) of complexes (1)-(5). Cells were treated with silver(I) thiocyanate phosphine complexes (1)-(5) at a concentration of 10 μM. The percentages were calculated with respect to the control and error bars were constructed on the basis of Standard Error of the Mean (SEM) where n=9 except for the ligand of compound 4 (n=8). The P-values (*P<0.001 and **P<0.0001) were determined with the Student's T-test to evaluate the significant difference.
The cells were thereafter treated with complexes (6)-(9) at a concentration of 10 μM prepared in 0.1% DMSO. Treatment with either 25% H2O2 or 100 μM CDDP served as controls for necrosis and apoptosis respectively. The CDDP was prepared in 0.9% NaCl while the H2O2 was diluted with supplemented DMEM prior to treatment.
A suspension (100 μl) of the differentially treated cells was added in triplicate to a microtiter plate. In the dark, AlamarBlue® dye (10 μl) was added to each well containing a sample, followed by a 2 hour incubation in a 5% CO2 incubator at 37° C. The fluorescence was read on a Synergy HT Multi-Detection Microplate reader at a wavelength of 530 nm and (excitation) and 590 nm (emission). In terms of this study, the apoptotic control CDDP (100 μM) was included. Error bars represent the standard error of the mean (SEM) where n=9. The Student's T-test was used to determine the significant difference of the treatments with respect to DMSO (P*<0.05 and P**<0.001). The silver(I) nitrate phosphine complexes under evaluation decreased the cancer cell viability to a large extent compared to DMSO except complex (9).
SNO-oesophageal cancer cells were a gift from the University of Pretoria, RSA. […]

[2] = test system: MCF-7 breast cancer cells; test: AlamarBlue viability and proliferation assay of MCF-7 breast cancer cells; assay type: cell-based, human; settings: MCF-7 cells
Description: For the biological studies, MCF-7 breast cancer cells were obtained from an immortal cell line from human adenocarcinoma from (primary site) mammary gland and (metastatic site) pleural effusion (ATCC no HTB-22).
MCF-7 breast cancer cells were cultured in Dulbecco's modified Eagle's medium (DMEM), 13.53 g/L with sodium bicarbonate (NaHCO3), 3.7 g/L supplemented with 10% foetal bovine serum (FBS), 1% gentamycin and 5% Penicillin/Streptomycin/Fungizone in 75 cm^3 culture flasks. Cells were subcultured twice a week and incubated at 37° C. with 5% CO2 in a humidified atmosphere. Hanks balanced salt solution (HBSS), supplemented DMEM media and trypsin versene were warmed to 37° C. prior to subculturing. Cells were washed twice with 10 ml Hanks balanced salt solution for 1 minute and were then incubated for 4.5 to 5 minutes at 37° C. with 6 ml trypsin versene to remove the cells from the culture flask. To inactivate the trypsin versene, 10 ml supplemented DMEM was added and the cells were pelleted by centrifugation at 1028 g for 4 minutes with an Allegra™ 25R Centrifuge. The pellet was resuspended in 1 ml supplemented DMEM and 500 μl of the cell suspension was then added to 25 ml of supplemented DMEM media in 75 cm^3 culture flasks.
MCF-7 breast cancer cells, in terms of a first study, and SNO-oesophageal cancer cells, in terms of a second study, were treated with 10 μM silverthiocyanide complexes (1)-(5), as well as their ligands (Ligand-1 to Ligand-5) over a 24 hour incubation period. […] An untreated negative control (UT) was exposed to similar conditions as the treated cells and monitored during the experimental study.
The AlamarBlue® viability and proliferation assay of complexes (1)-(5) for the MCF-7 breast cancer cells is depicted in FIGS. 1A to 1F. The percentage viability of control samples determined by the AlamarBlue® viability and proliferation assay is depicted in FIG. 1A. […] A significant difference (P<0.001) between the control and the treated samples was calculated using Student's T-test and is indicated by an asterisk.
(§1) This Figure depicts the percentage viability of MCF-7 cells treated with various concentrations of complex (1) as determined by the AlamarBlue® viability and proliferation assay. […] The asterisk indicates a significant difference between a sample and the control (P<0.001) as calculated with Student's T-test.
as §1, with “FIG. 1C to FIG. 1F represent the dose dependant studies of complexes (2) to (5), respectively. In each of these Figures,” for “This Figure depicts”, “complexes (2) to (5) was” for “complex (1) as”, “T-test. […]” for “T-test.”

[AgSCN{P(4-FC6H4)3}2]2 [complex (3)]
percentage cellular viability / toxicity ([1]; 10 μM, 24 hour treatment, compared to the control): highly toxic
cytotoxic activity (ranking) [2]: strongest

C1#[N+][Ag]([P+](c2ccccc2)(c2ccccc2)c2ccccc2)([P+](c2ccccc2)(c2ccccc2)c2ccccc2)[S]C#[N+][Ag]([P+](c2ccccc2)(c2ccccc2)c2ccccc2)([P+](c2ccccc2)(c2ccccc2)c2ccccc2)[S]1 [complex (1), [AgSCN(PPh3)2]2]
cytotoxic activity (ranking) [2]: strongest

c1ccc([P+](c2ccccc2)(c2ccccc2)[Ag+]([P+](c2ccccc2)(c2ccccc2)c2ccccc2)([P+](c2ccccc2)(c2ccccc2)c2ccccc2)[P+](c2ccccc2)(c2ccccc2)c2ccccc2)cc1 [complex (9), AgNO3(PPh3)4]
cancer cell viability / toxicity ([1]; 10 μM in 0.1% DMSO, 24 hours, compared to vehicle control): low cytotoxicity
cancer cell death induced ([1]; 10 μM, 24 hours): ~31.25%
